Experimental data: patent publication US20030108484A1, “Individualization of therapy with antineoplastic agents” (McGill University, priority 2001, published 2003)
Like-named read-outs stand apart in the source and are kept apart here. Marks after values point to notes of the source that are not given here.

Experiments:
[1] = tested on: AAMU-Ab; assay: Competitive antigen ELISA, cross-reactivity of AAMU-Ab; type: binding, rabbit; settings: for % Cross-Reaction AAMU-Ab: competitive antigen ELISA, 0 = absence of inhibition or inhibition no higher than 40% at highest concentration tested (5×10^−3 M)
Protocol: (§1) Buffers and water without additives are filtered through millipore filters and kept for 1 week. BSA, antibodies, Tween™ 20 and horse radish peroxidase conjugates are added to these buffers and water just prior to use. Urine samples are usually collected 4 hours after drinking a cup of coffee (instant or brewed with approximately 100 mg of caffeine per cup) and stored at −80° C. The urine samples are diluted 10 times with sodium phosphate buffer (620 mosm, pH 7.50) and are subsequently diluted with water to give concentrations of AAMU and 1X no higher than 3×10^−6 M in the ELISA. All the pipettings are done with an eight-channel pipette, except those of the antibody and sample solutions. Starting with the last well, 100 μL of a carbonate buffer (100 mM, pH 9.6) containing 2.5 μg mL^−1 antibodies are added to each well. After 90 min. at room temperature, the wells are washed three times with […] of TPB: isotonic sodium phosphate buffer (310 mosm, pH 7.50) containing 0.05% Tween™ 20.
(§2) After the initial wash, unoccupied sites are blocked by incubation for 90 min. at room temperature with 100 μL TBP containing 3% BSA. The wells are washed four times with 100 μL TPB. […] The microplate is gently shaken with an orbital shaker at room temperature for 3-4 hours. The wells are washed three times with 100 μL TPB containing 1% BSA and three times with water containing 0.05% Tween™ 20. To the washed plate is added 150 μL of a substrate buffer composed of citric acid (25 mM) and sodium phosphate dibasic buffer (50 mM, pH 5.0) containing 0.06% hydrogen peroxide and 0.04% o-phenylenediamine hydrochloride.
(§3) Buffers and water without additives were filtered through millipore filters and kept for 1 week. BSA, antibodies, Tween™ 20 and horse radish peroxidase conjugates were added to these buffers and water just prior to use. Urine samples were usually collected 4 hours after drinking a cup of coffee (instant or brewed with approximately 100 mg of caffeine per cup) and stored at −80° C. They were diluted 10 times with sodium phosphate buffer (620 mosm, pH 7.50) and were subsequently diluted with water to give concentrations of AAMU and 1X no higher than 3×10^−6 M in the ELISA. All the pipettings were done with an eight-channel pipette, except those of the antibody and sample solutions. Starting with the last well, 100 μL of a carbonate buffer (100 mM, pH 9.6) containing 2.5 μg mL^−1 antibodies was pipetted. After 90 min. at room temperature, the wells were washed three times with 100 μL of TPB: isotonic sodium phosphate buffer (310 mosm, pH 7.50) containing 0.05% TweenTm 20.
(§4) After the initial wash, unoccupied sites were blocked by incubation for 90 min. at room temperature with […] TBP containing 3% BSA. The wells were washed four times with 100 μL TPB. […] The microplate was gently shaken with an orbital shaker at room temperature for 3-4 hours. The wells were washed three times with 100 μL with TPB containing 1% BSA and three times with water containing 0.05% Tween™ 20. To the washed plate was added 150 μL of a substrate buffer composed of citric acid (25 mM) and sodium phosphate dibasic buffer (50 mM, pH 5.0) containing 0.06% hydrogen peroxide and 0.04% o-phenylenediamine hydrochloride. After 20 min. at room temperature with shaking, the reaction was stopped with 50 μL of 2.5 N HCl.
(§5) The cross reactivities of AAMU-Ab and 1X-Ab were tested using a wide variety of caffeine metabolites and structural analogs (Table 2 below).

[2] = tested on: 1X-Ab; assay: Competitive antigen ELISA, cross-reactivity of 1X-Ab; type: binding, rabbit; settings: for % Cross-Reaction 1X-Ab: competitive antigen ELISA, 0 = absence of inhibition or inhibition no higher than 40% at highest concentration tested (5×10^−3 M)
Protocol: as §1, §2, §3, §4, §5

[3] = p<0.05, cited from earlier work
[4] = tested on: breast cancer; settings: first-line chemotherapy; cited from earlier work
[5] = cited from earlier work
[6] = individuals receiving 550 mg/m^2; cited from earlier work
[7] = tested on: estrogen receptor-positive breast cancer and bone metastases; settings: cited from earlier work

Row | Compound | % Cross-Reaction AAMU-Ab [1] | % Cross-Reaction 1X-Ab [2] [%] | also measured
1 | Cn1c(=O)c2c(ncn2C)n(C)c1=O [1,3,7-Trimethyl Xanthine (Caffeine), 1,3,7-Trimethyl Xanthine] | 0% | 0 | –
2 | Cn1c(=O)c2[nH]cnc2n(C)c1=O [1,3-Dimethyl Xanthine (Theophylline), 1,3-Dimethyl Xanthine] | 0% | 0.2 | –
3 | Cn1c(=O)[nH]c2ncn(C)c2c1=O [1,7-Dimethyl Xanthine (Paraxanthine), 1,7-Dimethyl Xanthine] | 0% | 0.5 | –
4 | Cn1c(=O)[nH]c2[nH]c(=O)n(C)c2c1=O [1,7-Dimethyluric acid] | 0% | 0 | –
5 | Cn1c(=O)[nH]c2nc[nH]c2c1=O [1-Methyl Xanthine (1X), 1-Methyl Xanthine] | 0% | 100 | IC50 ([2]; read-out: concentration required for 50% inhibition in the competitive antigen ELISA, 1X-Ab): 10 µM
6 | Cn1c(=O)[nH]c2[nH]c(=O)[nH]c2c1=O [1-Methyluric acid] | 0% | 11 | –
7 | Cn1cnc2c1c(=O)[nH]c(=O)n2C [3,7-Dimethyl Xanthine (Theobromine), 3,7-Dimethyl Xanthine] | 0% | 0 | –
8 | Cn1c(=O)[nH]c(=O)c2[nH]cnc21 [3-Methyl Xanthine] | 0% | 0 | –
9 | CC(=O)Nc1c(N)n(C)c(=O)n(C)c1=O [5-Acetamino-6-amino-1,3-dimethyluracil] | 0% | 0 | –
10 | CC(=O)Nc1c(N)n(C)c(=O)[nH]c1=O [5-Acetamino-6-amino-1-methyluracil] | 100% | 0 | IC50 ([1]; read-out: concentration required for 50% inhibition in the competitive antigen ELISA, AAMU-Ab): 1.5 µM
11 | CC(=O)Nc1c(N)[nH]c(=O)[nH]c1=O [5-Acetamino-6-amino-uracil] | 0.6% | 0 | –
12 | Cn1cnc2[nH]c(=O)[nH]c(=O)c21 [7-Methyl Xanthine] | 0% | 0 | –
13 | Cc1nc2[nH]c(=O)[nH]c(=O)c2[nH]1 [8-Methyl Xanthine] | 0% | 0 | –
14 | COc1ccc2c(c1)[C@]13CCCC[C@@H]1[C@H](C2)N(C)CC3 [Dextromethorphan] | – | – | mean performance +/-SE ([3]; extensive metabolizers (EMs)): 95+/−0.5%; mean performance +/-SE ([3]; poor metabolizers (PMs)): 86+/−6%
15 | CC(=O)O[C@@]12CO[C@@H]1C[C@H](O)[C@@]1(C)C(=O)[C@H](O)C3=C(C)[C@@H](OC(=O)[C@H](O)[C@@H](NC(=O)OC(C)(C)C)c4ccccc4)C[C@@](O)([C@@H](OC(=O)c4ccccc4)[C@H]21)C3(C)C [Docetaxel] | – | – | front-line response rate in breast cancer [4]: up to 73%
16 | Nc1nc2nc[nH]c2c(=O)[nH]1 [Guanine] | 0% | 0 | –
17 | O=c1[nH]cnc2nc[nH]c12 [Hypoxanthine] | 0% | 0 | –
18 | O=c1cc[nH]c(=O)[nH]1 [Uracil] | 0% | 0 | –
19 | O=c1[nH]c(=O)c2[nH]c(=O)[nH]c2[nH]1 [Uric acid] | 0% | 0 | –
20 | O=c1[nH]c(=O)c2[nH]cnc2[nH]1 [Xanthine] | 0^a % | 0 | –
21 | Nc1ccc(S(=O)(=O)c2ccc(N)cc2)cc1 [dapsone] | – | – | adverse reactions ([5]; fast acetylators): 17%; adverse reactions ([5]; slow acetylators): 46%
22 | COc1cccc2c1C(=O)c1c(O)c3c(c(O)c1C2=O)C[C@@](O)(C(=O)CO)C[C@@H]3O[C@H]1C[C@H](N)[C@H](O)[C@H](C)O1 [doxorubicin] | – | – | front-line response rate in breast cancer [4]: 53%; incidence of cardiomyopathy (congestive heart failure and dysrhythmias) [6]: approximately 2%
23 | CC/C(=C(\c1ccccc1)c1ccc(OCCN(C)C)cc1)c1ccccc1 [tamoxifen] | – | – | occurrence of hormone flare (increasing bone pain, erythema, hypercalcemia) ([7]; after 7-14 days of treatment, women with estrogen receptor-positive breast cancer and bone metastases): approximately 5%; individuals with hormone flare who respond to tamoxifen ([7]; individuals with hormone flare): 75%
